Test results reported in ChEMBL document CHEMBL4699500, “Synthesis of metronidazole based thiazolidinone analogs as promising antiamoebic agents” (Bioorg Med Chem Lett, 2020).

system: HEK293; assay: Cytotoxicity against human HEK293 cells assessed as reduction in cell viability at 100 uM incubated for 48 hrs by MTT assay; assay type: cell-based; conditions: hek293, 48 h

SMILES | Activity
Cc1ncc([N+](=O)[O-])n1CCOc1ccc(/C=C2\S/C(=N\c3ccccc3)N(Cc3ccccc3)C2=O)cc1 | Non-Toxic
Cc1ncc([N+](=O)[O-])n1CCOc1ccc(/C=C2\S/C(=N\c3ccccc3)N(Cc3ccncc3)C2=O)cc1 | Non-Toxic
Cc1ncc([N+](=O)[O-])n1CCOc1ccc(/C=C2\S/C(=N\c3ccccc3)N(Cc3cccs3)C2=O)cc1 | Non-Toxic

system: Entamoeba histolytica; assay: Antimicrobial activity against Entamoeba histolytica HM1:MMS assessed as reduction in amoeba growth incubated for 72 hrs by microscopy analysis; assay type: functional, organism-based; conditions: not given

SMILES | IC50 [nM]
Cc1ncc([N+](=O)[O-])n1CCOc1ccc(/C=C2\S/C(=N\c3ccccc3)N(Cc3ccccc3)C2=O)cc1 | 1650
Cc1ncc([N+](=O)[O-])n1CCOc1ccc(/C=C2\S/C(=N\c3ccccc3)N(Cc3ccco3)C2=O)cc1 | 640
COc1ccc(CN2C(=O)/C(=C/c3ccc(OCCn4c([N+](=O)[O-])cnc4C)cc3)S/C2=N\c2ccccc2)cc1OC | 1050
Cc1ncc([N+](=O)[O-])n1CCOc1ccc(/C=C2\S/C(=N\c3ccccc3)N(Cc3ccc(Cl)cc3Cl)C2=O)cc1 | 2190
CCCCN1C(=O)/C(=C/c2ccc(OCCn3c([N+](=O)[O-])cnc3C)cc2)S/C1=N\c1ccccc1 | 4970
Cc1ncc([N+](=O)[O-])n1CCOc1ccc(/C=C2\S/C(=N\c3ccccc3)N(Cc3ccncc3)C2=O)cc1 | 370
Cc1ncc([N+](=O)[O-])n1CCOc1ccc(/C=C2\S/C(=N\c3ccccc3)N(Cc3cccs3)C2=O)cc1 | 1630
Cc1ncc([N+](=O)[O-])n1CCOc1ccc(/C=C2\S/C(=N\c3ccccc3)N(Cc3ccccc3Cl)C2=O)cc1 | 2320
Cc1ncc([N+](=O)[O-])n1CCOc1ccc(/C=C2\S/C(=N\c3ccccc3)N(CC(C)C)C2=O)cc1 | 3950
Cc1ncc([N+](=O)[O-])n1CCOc1ccc(/C=C2\S/C(=N\c3ccccc3)N(CCO)C2=O)cc1 | 180
Cc1ncc([N+](=O)[O-])n1CCOc1ccc(/C=C2\S/C(=N\c3ccccc3)N(CC3CCCO3)C2=O)cc1 (stereo not drawn) | 3100
Cc1ncc([N+](=O)[O-])n1CCOc1ccc(/C=C2\S/C(=N\c3ccccc3)N(Cc3ccc(F)cc3)C2=O)cc1 | 2840
CCCN1C(=O)/C(=C/c2ccc(OCCn3c([N+](=O)[O-])cnc3C)cc2)S/C1=N\c1ccccc1 | 3620

system: HEK293; assay: Cytotoxicity against human HEK293 cells assessed as reduction in cell viability at 2.5 to 50 uM incubated for 48 hrs by MTT assay; assay type: cell-based; conditions: hek293, 48 h, dose 2.5-50 µM

SMILES | Activity
Cc1ncc([N+](=O)[O-])n1CCOc1ccc(/C=C2\S/C(=N\c3ccccc3)N(Cc3ccccc3)C2=O)cc1 | Non-Toxic
Cc1ncc([N+](=O)[O-])n1CCOc1ccc(/C=C2\S/C(=N\c3ccccc3)N(Cc3ccco3)C2=O)cc1 | Non-Toxic
COc1ccc(CN2C(=O)/C(=C/c3ccc(OCCn4c([N+](=O)[O-])cnc4C)cc3)S/C2=N\c2ccccc2)cc1OC | Non-Toxic
Cc1ncc([N+](=O)[O-])n1CCO [METRONIDAZOLE] | Non-Toxic
Cc1ncc([N+](=O)[O-])n1CCOc1ccc(/C=C2\S/C(=N\c3ccccc3)N(Cc3ccncc3)C2=O)cc1 | Non-Toxic
Cc1ncc([N+](=O)[O-])n1CCOc1ccc(/C=C2\S/C(=N\c3ccccc3)N(Cc3cccs3)C2=O)cc1 | Non-Toxic
Cc1ncc([N+](=O)[O-])n1CCOc1ccc(/C=C2\S/C(=N\c3ccccc3)N(CCO)C2=O)cc1 | Non-Toxic
